80 compounds from the METLIN SMRT retention time set (Domingo-Almenara et al. 2019) can be followed below.

The nature of this data set: gradient 5% acetonitrile 3 min, to 50% in 2 min, to 85% in 15 min, held 3 min, 100 µL/min. The settings on record: column: Zorbax Extend-C18 2.1 x 50 mm; eluents: water / acetonitrile, 0.1% formic acid. The method in brief:
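Using water and acetonitrile that each contained 0.1% formic acid, mixtures of ~100 pure standards were separated at 100 μL/min on a Zorbax Extend-C18 column (2.1 × 50 mm, 1.8 μm). The HPLC fed a quadrupole time-of-flight mass spectrometer working in positive and negative ionization mode, with dead and dwell volumes of 40 μL and 900 μL. Data were acquired over 3 months. Retention time was read from computationally picked adduct peaks after manual inspection of each.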
In turn, `CCn1c(C)c(-c2nc(C3CC3)no2)c(S(=O)(=O)NC2CCCC2)c1C` displayed an RP-LC retention time of 1060 s.

On to `COc1cccc(S(=O)(=O)N2CCN(C3=CC4=NC(C)CN4C=N3)CC2)c1` (stereo not given), for which the RP-LC retention time turned out to be 648 s.

Take `O=C(Cn1cccn1)N1CC(c2nc(-c3cccs3)no2)C1`: the RP-LC retention time was 644 s.

With `Cc1ccc(C(=O)Nc2ccc(N3CCN(C4CCCC4)C3=O)nc2)cc1F`, the RP-LC retention time was 918 s.

The compound `Cc1ccc(S(=O)(=O)NCC(=O)Oc2ccccc2C)cc1` returned an RP-LC retention time of 881 s.

As for `COc1ccc2[nH]cc(CCN3CC(C(=O)Nc4cccc(C)c4C)CC3=O)c2c1` (stereo not given), the RP-LC retention time stood at 771 s.

Compound `O=C1CC2(CCN(S(=O)(=O)c3cc(F)ccc3F)CC2)Oc2ccccc21` gave an RP-LC retention time of 929 s.

Compound `Cc1c(Cl)cccc1S(=O)(=O)NCC1CCN(C(=O)c2cccn(C)c2=O)CC1` displayed an RP-LC retention time of 654 s.

The compound `Cc1ccc(CNC(=O)C2CCCN(c3nnc4ccccn34)C2)cc1C` (stereo not given) gave an RP-LC retention time of 708 s.

`Clc1cccc(-c2nnc(-c3nc(NC4CCCC4)c4ccccc4n3)o2)c1` displayed an RP-LC retention time of 1170 s.

In the case of `CCCCNC(=O)Cc1c(OC)ccc2cc(Br)ccc12`, the RP-LC retention time came out at 947 s.

In turn, `O=C(NCCc1ccncc1)C1CN(C(=O)COc2ccccc2F)C1` returned an RP-LC retention time of 544 s.

`COc1cc(-c2nc3cccc(C)n3c2Nc2ccc3c(c2)OCCO3)ccc1O` had an RP-LC retention time of 634 s.

Consider `N#CC1(C(=O)Nc2ccc(F)c(F)c2)CC1`, for which the RP-LC retention time stood at 760 s.

`Cc1c(F)cccc1NC(=O)Nc1ccc2nncn2c1` showed an RP-LC retention time of 660 s.

The compound `Cn1c(=O)c2ccn(CC(=O)N3CCN(c4ccc(Cl)cc4)CC3)c2n(C)c1=O` showed an RP-LC retention time of 752 s.

`COC1CN(c2cccc(F)c2)C12CCN(S(=O)(=O)Cc1ccccc1F)CC2` (stereo not given): the RP-LC retention time worked out at 1170 s.

As for `COc1ccc2nc(C(=O)NCc3cc(F)ccc3F)cn2n1`, the RP-LC retention time amounted to 823 s.

`Cc1ccc(OCC(O)CN2CCN(CC(O)COC(C)C)CC2)c(C(C)(C)C)c1` (stereo not given): the RP-LC retention time turned out to be 607 s.

Compound `CNCc1ccc(-c2ccc(Cl)cc2Cl)o1` registered an RP-LC retention time of 658 s.

`O=C1NC(=O)[C@@H](c2cn3c4c(cccc24)CCC3)[C@@H]1c1c[nH]c2ccccc12` showed an RP-LC retention time of 947 s.

Compound `CCNc1nc(C)cc(N2CCN(C(=O)Nc3ccc(CC)cc3)CC2)n1` gave an RP-LC retention time of 702 s.

Regarding `CC(C)NC(=O)C1CCCN(c2nc3ncn(CC(=O)Nc4ccc(C(C)C)cc4)c(=O)c3s2)C1` (stereo not given), the RP-LC retention time was 785 s.

`CCOC(=O)C1=C(CN(C)c2ccccc2)NC(=O)NC1c1ccc(C)cc1` (stereo not given) yielded an RP-LC retention time of 1020 s.

Turning to `COc1ccc(-c2cc3n(n2)CCCN(C(=O)NCc2ccco2)C3)cc1`, the RP-LC retention time was determined as 743 s.

`CCS(=O)(=O)N1CC(=O)N(c2ccc(C)c(C)c2)C(C)(C(=O)NCc2ccc(F)cc2)C1` (stereo not given) showed an RP-LC retention time of 846 s.

As to `CCN(CC)CCNC(=O)CCC(=O)N1CCc2c(c(C(=O)N3CCCCC3)nn2C)C1`, the RP-LC retention time amounted to 573 s.

As for `Cc1ccc(-c2ncc(C(=O)N3CC=C(c4ccccc4)CC3)c(-c3ccncc3)n2)cc1`, the RP-LC retention time is 1110 s.

`O=S(=O)(c1cccc(-c2nc(-c3ccccc3)no2)c1)N1CCc2ccccc21` returned an RP-LC retention time of 1320 s.

For the compound `Clc1cc(N2CCSCC2)ncn1`, the RP-LC retention time turned out to be 763 s.

`COc1ccc(NC(=O)c2cn(-c3cc(N(C)C)ncn3)cn2)c(OC)c1` yielded an RP-LC retention time of 842 s.

`O=C(Nc1nnc(C2CC(=O)N(c3ccc(F)cc3)C2)o1)c1ccc(Br)cc1` (stereo not given) gave an RP-LC retention time of 783 s.

As for `COC(=O)CNC(=O)Cc1c(C)nn(-c2nc(-c3ccc(C)cc3)cs2)c1C`, the RP-LC retention time came out at 963 s.

With `Cc1cc2c(=O)n(CC(=O)NCc3cccc(Cl)c3)c3cccnc3n2n1`, the RP-LC retention time was found to be 727 s.

`CCCNC(=O)C1CCN(c2ccc(SCC(=O)Nc3c(C)cc(C)cc3C)nn2)CC1` returned an RP-LC retention time of 657 s.

Take `Cc1ccc(C)c(N2CCN(C(=O)C3CCN(c4nccnc4Sc4ccccc4)CC3)CC2)c1`: the RP-LC retention time was determined as 1320 s.

`Cc1ccc(Cn2c(=O)n(CCNC(=O)CC(C)C)c3ncccc32)cc1` showed an RP-LC retention time of 806 s.

As for `Cn1ncc2c3ccccc3n(CC(=O)N3CCN(Cc4ccc5c(c4)OCO5)CC3)c2c1=O`, the RP-LC retention time amounted to 622 s.

Regarding `O=C(Cn1c(=O)n(-c2ccccc2)c2ncccc21)NC1CCCCCC1`, the RP-LC retention time was 845 s.

In turn, `Cc1ccc(C)c(NC(=O)Cn2c(C)nc3c(sc4nc(-c5ccccc5)ccc43)c2=O)c1` displayed an RP-LC retention time of 1090 s.

Consider `Cc1noc(C2CN(C(=O)Nc3ccc(Cl)cc3F)CC23CCOCC3)n1` (stereo not given), for which the RP-LC retention time is 769 s.

The compound `CCn1cc(-c2nc(C)c(C(=O)N3CCc4ccccc4C3)s2)c2cccnc21` returned an RP-LC retention time of 987 s.

Turning to `COc1ccc(S(=O)(=O)N2CCN(CCc3cn(C)c4ncccc34)CC2)cc1Cl`, the RP-LC retention time worked out at 654 s.

Compound `COc1cccc(C(=O)N2CCC3(CC2)NCc2ccccc2-n2ccnc23)c1` returned an RP-LC retention time of 606 s.

In turn, `O=C(NC1CCCC1)c1ccn[nH]1` returned an RP-LC retention time of 614 s.

`Cc1cc(C)cc(NS(=O)(=O)c2cc(-c3[nH]ncc3C(=O)N3CCOCC3)oc2C)c1` gave an RP-LC retention time of 731 s.

In the case of `O=C(NCc1ccccc1C(F)(F)F)c1ccnc(N2CCCCC2)n1`, the RP-LC retention time is 1190 s.

`Cc1cc(C)c2c(=O)n(Cc3nc(-c4ccccc4Cl)oc3C)c(=O)n(Cc3ccco3)c2n1`: the RP-LC retention time is 1390 s.

In turn, `CCc1ccc(NC(=O)Cn2c(C(C)C)nc3c(c2=O)CCN(Cc2ccccc2)C3)cc1` came in with an RP-LC retention time of 705 s.

Take `Cc1ccc(NC(=O)Cn2c(C)nc(C)c(C)c2=O)cc1C`: the RP-LC retention time amounted to 690 s.

On to `CCCN(CC1CCOC1)S(=O)(=O)c1ccc(OC)c(Cl)c1` (stereo not given), for which the RP-LC retention time stood at 936 s.

`COc1ccc(-c2cn3c(CC(=O)Nc4ccccc4C(F)(F)F)csc3n2)cc1OC` had an RP-LC retention time of 755 s.

`CNC(=O)[C@@H]1CN(C(=O)Cc2ccsc2)C[C@H]1c1n[nH]c(C)n1` displayed an RP-LC retention time of 565 s.

The compound `O=c1[nH]cc(S(=O)(=O)N2CCCCCC2)c(=O)[nH]1` came in with an RP-LC retention time of 650 s.

The compound `C[C@@H](NC(=O)c1ccccc1Br)C(=O)NCc1cscn1` came in with an RP-LC retention time of 635 s.

`Cc1ccc(NC(=O)C(=O)NCC(c2ccc3c(c2)OCO3)N2CCOCC2)c(C)c1` (stereo not given) gave an RP-LC retention time of 693 s.

On to `COc1ccccc1NC(=O)N1CCC2(CC1)NC(=O)c1ccc(Cl)cc1N2C`, for which the RP-LC retention time is 806 s.

In the case of `CN1CCCC1c1nc(C2CN(C(=O)c3ccnn3C)C2)no1` (stereo not given), the RP-LC retention time is 543 s.

`COc1cc(NC(=O)Cc2csc3nc(-c4ccc(Cl)cc4)cn23)cc(OC)c1OC` had an RP-LC retention time of 875 s.

`CC(C)NC(=O)N1CCCC(c2nc(C3CCOCC3)no2)C1` (stereo not given) registered an RP-LC retention time of 661 s.

For the compound `COc1ccc(-c2noc(Cn3nc(-c4ccc(C)cc4)ccc3=O)n2)cc1OC`, the RP-LC retention time is 962 s.

For `CC(C)CN1C(=O)CCc2cc(NS(=O)(=O)c3ccccc3F)ccc21`, the RP-LC retention time was 845 s.

For `CCOc1ccc2nc(Nc3ncc4c(n3)CC(c3ccc(C)cc3)CC4=O)nc(C)c2c1` (stereo not given), the RP-LC retention time turned out to be 886 s.

Take `COc1ccc(N2CCN(C(=O)c3cn4ccc(C)cc4n3)CC2)cc1`: the RP-LC retention time was 615 s.

`O=C(NCCCN1CCOCC1)c1nc2ccccn2c1-c1ccc(Cl)cc1` yielded an RP-LC retention time of 629 s.

Consider `Cc1cc(C)n(-c2ccnc(N3CCC(C(=O)NCc4ccncc4)CC3)n2)n1`, for which the RP-LC retention time turned out to be 599 s.

`COc1ccc(OCC(=O)N2CCN(c3nc(CN4CCOCC4)cs3)CC2)cc1` showed an RP-LC retention time of 611 s.

Compound `Cc1cc(Cl)ccc1NC(=O)Cn1ccc2sccc2c1=O` returned an RP-LC retention time of 764 s.

On to `COc1ccc(OC)c(NC(=O)C(C)n2cnc3nc4c(cc3c2=O)CCCC4)c1` (stereo not given), for which the RP-LC retention time is 755 s.

In turn, `CCOc1cc(=O)n2c(c1C(=O)NCc1ccc(C)o1)CCCCC2` gave an RP-LC retention time of 688 s.

Turning to `Cc1ccsc1CN1CCC(c2nc(-c3cnccn3)n[nH]2)CC1`, the RP-LC retention time stood at 567 s.

As for `Cc1cccc(-c2nc(Cn3nnc(C(=O)NCc4ccc(C(C)C)cc4)c3C)c(C)o2)c1`, the RP-LC retention time turned out to be 1310 s.

Consider `CN(CC1(C)CCOCC1)S(=O)(=O)c1cc(F)ccc1F`, for which the RP-LC retention time turned out to be 614 s.

In turn, `Cc1csc(COc2ccc(C(=O)Nc3ccc4cn[nH]c4c3)cc2)n1` displayed an RP-LC retention time of 711 s.

Turning to `COc1ccc(C2(C(=O)N3CCC([C@H]4[C@@H](OC)C(=O)N4C(C)C)CC3)CC2)cc1`, the RP-LC retention time came out at 776 s.

With `Cn1c(N2CCN(S(=O)(=O)c3ccc(Cl)s3)CC2)nc2ccccc21`, the RP-LC retention time was determined as 614 s.

With `O=C(c1ccc(Cl)cc1)N1CCN=C1N1CCCCC1`, the RP-LC retention time is 640 s.

In the case of `Cc1cc(=O)n(CC(C)O)c(-c2ccccc2)n1` (stereo not given), the RP-LC retention time was 753 s.

In turn, `Cc1cc(C(F)(F)F)nn1CC(=O)NCC1Cn2cccc2C(=O)N1CC(C)C` (stereo not given) gave an RP-LC retention time of 797 s.

In the case of `COc1cc(=O)c(C(=O)Nc2ccc(S(N)(=O)=O)cc2)nn1-c1ccc(F)cc1`, the RP-LC retention time is 678 s.
